{
  "source": "patent US12594282B2",
  "about": "“Use of small molecule compounds in the treatment of diseases mediated by lung epithelial cell injury and/or vascular endothelial cell injury” (Guangzhou Cellprotek Pharmaceutical Co., Ltd., priority 2020, dated 2026)",
  "key": {"[1]": {"test_system": "rat vascular endothelial cells (RAOEC)", "test": "OGD-R injury model, LDH detection, RAOEC", "format": "cell-based", "conditions": "OGD 4 hours, restoration 24 hours, 1, 3, 10 μM, prophylactic (1 hour before OGD) or therapeutic (at restoration)", "experimental": "HUVEC cells were cultured in modified DMEM medium containing 10% fetal bovine serum. When the cells reached about 80% confluence, the cells were digested with 0.25% trypsin, and then pipetted evenly with modified DMEM containing 10% fetal bovine serum. The cell concentration was adjusted to 1×10^5 cells/mL, and the cells were seeded at 400 uL/well in a 24-well plate, and the experiment was carried out when the cells grew to about 70% confluence. RAOEC cells were cultured in high-glucose DMEM medium containing 10% fetal bovine serum, and the seeding conditions were the same as those for HUVECs.\nThe hypoxia workstation was set to have an oxygen concentration of 1% (1% O2, 5% CO2, 94% N2), a temperature of 37° C., and a humidity of 85%. A sugar-free DMEM medium was placed in the hypoxia workstation for pre-hypoxia for 3 hours. The medium in the culture plate was aspirated, and the plate was washed twice with preheated sugar-free DMEM medium, and 100 uL of sugar-free DMEM medium was added to each well. […]\nAt the end of the experiment, 50 uL of medium was taken from each well into a 96-well plate, and then cytotoxicity was detected according to the operating instructions of the LDH detection kit. The results were calculated as follows: […]"}, "[2]": {"test_system": "NR4A3", "test": "NR4A3/CD31 immunofluorescence of lung tissue, acute hypobaric hypoxia", "format": "in vivo, Macaca fascicularis", "experimental": "Paraffin sections of Macaca fascicularis lung tissue, include 3 in the normal control group (normobaric normoxia, NN), 5 in the acute hypobaric hypoxia treatment group (hypobaric hypoxia, HH), and 5 in the acute hypobaric hypoxia+YC-6 treatment group (HH+YC-6).\nThe paraffin sections were placed in a 65° C. oven for 30 minutes, and then quickly transferred to 100% xylene for dewaxing, and then subjected to rehydration according to the regular process (100% xylene, 5 min—100% xylene, 2 min—100% xylene, 2 min—100% ethanol, 1 min—100% ethanol, 1 min—95% ethanol, 1 min—90% ethanol, 1 min—B0% ethanol, 1 min—70% ethanol, 1 min—50% ethanol, 1 min—distilled water, 1 min×3), and then EDTA antigen retrieval solution (microwave heating) was used for antigen retrieval. After the retrieval, it was naturally cooled to room temperature, and then washed three times with PBS for 5 minutes each time. The residual PBS on the tissue section was removed. A circle was drew around the tissue with an immunohistochemical pen, and then the corresponding primary antibody diluted in DAKO antibody diluent was added to the tissue to make it completely cover the tissue. The tissue section was incubated overnight in a humidified chamber at 4° C. Then it was washed 3 times with PBS for 5 minutes each time. […]"}},
  "data": [
    {"smiles": "C[C@@]12CCCC1C1C[C@@H](O)[C@]3(O)C[C@@H](O)CC[C@]3(C)C1CC2", "note": "(stereo partly drawn) [YC-6, 5α-androst-3β,5,6β-triol]", "values": [
      {"measurement": "OGD-R-induced increase in LDH release", "setting": "[1]", "value": "significantly reduced the OGD-R-induced increase in LDH release in a dose-dependent manner"},
      {"measurement": "NR4A3 protein expression in lung tissue endothelial cells", "setting": "[2]; NR4A3 co-localized with CD31, immunofluorescence", "value": "significantly increased the protein expression of NR4A3"},
      {"measurement": "expression of vascular endothelial cell marker CD31 in lung tissue", "setting": "[2]; immunofluorescence", "value": "inhibited the down-regulation of the expression of vascular endothelial cell marker CD31"}
    ]}
  ]
}
